# According to US8778871B2 (Takeda Pharmaceutical Company Limited, priority 2004, dated 2014):
# Non-standard residues stand in square brackets, D forms with d. Residues, ends and D or L forms follow the SMILES beside them. *: point of attachment. 1Nal = N[C@@H](Cc1cccc2ccccc12)C(=O)O; 2Nal = N[C@@H](Cc1ccc2ccccc2c1)C(=O)O; Fmoc = O=C(OCC1c2ccccc2-c2ccccc21)*; Cha = N[C@@H](CC1CCCCC1)C(=O)O
# Biological target: T1, hOT7T175 (Homo sapiens, UniProt Q969F8, L364H)
# T1 construct: expressed in transfected cells
# T1 sequence (Q969F8 whole entry L364H): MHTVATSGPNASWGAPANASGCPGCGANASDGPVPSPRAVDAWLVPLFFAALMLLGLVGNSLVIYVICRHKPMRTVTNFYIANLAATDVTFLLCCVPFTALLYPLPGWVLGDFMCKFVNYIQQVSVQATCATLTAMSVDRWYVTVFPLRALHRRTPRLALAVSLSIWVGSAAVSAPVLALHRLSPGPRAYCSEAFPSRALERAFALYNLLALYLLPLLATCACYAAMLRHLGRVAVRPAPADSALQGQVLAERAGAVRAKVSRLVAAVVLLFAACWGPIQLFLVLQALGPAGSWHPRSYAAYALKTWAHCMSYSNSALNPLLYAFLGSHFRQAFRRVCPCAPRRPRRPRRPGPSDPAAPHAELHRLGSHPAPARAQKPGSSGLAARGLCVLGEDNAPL
# Experiment: Intracellular Ca ion level-increasing activity using FLIPR (180 seconds; specific activity to Metastin (1-54))
# Format: cell-based
# Details: hOT7T175/CHO, relative to Metastin (1-54) = 1
row,Structure (SMILES),"Specific Act. (intracellular Ca ion level-increasing activity, specific activity to Metastin (1-54))"
1,CC(=O)N[C@@H](Cc1ccc(O)cc1)C(=O)N[C@@H](CC(N)=O)C(=O)N[C@@H](Cc1c[nH]c2ccccc12)C(=O)N[C@@H](CC(N)=O)C(=O)N[C@@H](CO)C(=O)N[C@@H](Cc1ccccc1)C(=O)NCC(=O)N[C@@H](CC(C)C)C(=O)N[C@@H](CCCNC(=N)N)C(=O)N[C@@H](Cc1ccccc1)C(N)=O [Compound No. 30],10
2,CC(C)C[C@H](NC(=O)CNC(=O)[C@H](Cc1ccccc1)NC(=O)[C@H](CO)NC(=O)[C@H](CC(N)=O)NC(=O)[C@H](Cc1c[nH]c2ccccc12)NC(=O)[C@H](CC(N)=O)NC(=O)[C@H](Cc1ccc(O)cc1)NC(=O)OCC1c2ccccc2-c2ccccc21)C(=O)N[C@@H](CCCNC(=N)N)C(=O)N[C@@H](Cc1ccccc1)C(N)=O [Compound No. 31],2
3,"CC(C)C[C@H](NC(=O)CNC(=O)[C@H](Cc1ccccc1)NC(=O)[C@H](CO)NC(=O)[C@H](CC(N)=O)NC(=O)[C@H](Cc1c[nH]c2ccccc12)NC(=O)[C@H](CC(N)=O)NC(=O)[C@H](Cc1ccc(O)cc1)NC(=O)[C@H](CC(N)=O)NC(=O)[C@@H]1CCCN1C(=O)[C@@H](N)CC(C)C)C(=O)N[C@@H](CCCNC(=N)N)C(=O)N[C@@H](Cc1ccccc1)C(N)=O [Compound No. 32, reference compound]",10
4,CC(C)C[C@H](NC(=O)CNC(=O)[C@H](Cc1ccccc1)NC(=O)[C@H](CO)NC(=O)[C@H](CC(N)=O)NC(=O)[C@H](Cc1c[nH]c2ccccc12)NC(=O)OCC1c2ccccc2-c2ccccc21)C(=O)N[C@@H](CCCNC(=N)N)C(=O)N[C@@H](Cc1ccccc1)C(N)=O [Compound No. 54] (Fmoc-WNSFGLRF-NH2),5
5,"CC(C)C[C@H](NC(=O)CNC(=O)[C@H](Cc1ccccc1)NC(=O)[C@H](CO)NC(=O)[C@H](CC(N)=O)NC(=O)[C@H](Cc1cn(C=O)c2ccccc12)NC(=O)[C@H](CC(N)=O)NC(=O)[C@@H](N)Cc1ccc(O)cc1)C(=O)N[C@@H](CCCNC(=N)N)C(=O)N[C@@H](Cc1ccc(C#N)cc1)C(N)=O [Compound No. 78, Tyr-Asn-Trp(For)-Asn-Ser-Phe-Gly-Leu-Arg-Phe(4CN)-NH2]",10
6,"CCCC[C@H](NC(=O)CNC(=O)[C@H](Cc1ccccc1)NC(=O)[C@H](CO)NC(=O)[C@H](CC(N)=O)NC(=O)[C@H](Cc1c[nH]c2ccccc12)NC(=O)[C@H](CC(N)=O)NC(=O)[C@@H](N)Cc1ccc(O)cc1)C(=O)N[C@@H](CCCNC(=N)N)C(=O)N[C@@H](Cc1ccccc1)C(N)=O [Compound No. 105, Tyr-Asn-Trp-Asn-Ser-Phe-Gly-Nle-Arg-Phe-NH2]",1
7,CC(C)C[C@H](NC(=O)CNC(=O)[C@H](Cc1ccccc1)NC(=O)[C@H](CO)NC(=O)[C@H](CC(N)=O)NC(=O)[C@H](Cc1c[nH]c2ccccc12)NC(=O)[C@H](CC(N)=O)NC(=O)[C@@H](N)Cc1ccc(O)cc1)C(=O)N[C@@H](CCCNC(=N)N)C(=O)N[C@@H](Cc1ccc2ccccc2c1)C(N)=O [Compound No. 110] (H-YNWNSFGLR[2Nal]-NH2),20
8,CC(C)C[C@H](NC(=O)CNC(=O)[C@H](Cc1ccccc1)NC(=O)[C@H](CO)NC(=O)[C@H](CC(N)=O)NC(=O)[C@H](Cc1c[nH]c2ccccc12)NC(=O)[C@H](CC(N)=O)NC(=O)[C@@H](N)Cc1ccc(O)cc1)C(=O)N[C@@H](CCCNC(=N)N)C(=O)N[C@@H](Cc1c(F)c(F)c(F)c(F)c1F)C(N)=O [Compound No. 111],3
9,CC(C)C[C@H](NC(=O)CNC(=O)[C@H](Cc1ccccc1)NC(=O)[C@H](CO)NC(=O)[C@H](CC(N)=O)NC(=O)[C@H](Cc1c[nH]c2ccccc12)NC(=O)[C@H](CC(N)=O)NC(=O)[C@@H](N)Cc1ccc(O)cc1)C(=O)N[C@@H](CCCNC(=N)N)C(=O)N[C@@H](CC1CCCCC1)C(N)=O [Compound No. 112] (H-YNWNSFGLR[Cha]-NH2),2
10,CC(C)C[C@H](NC(=O)CNC(=O)[C@H](Cc1ccccc1)NC(=O)[C@H](CO)NC(=O)[C@H](CC(N)=O)NC(=O)[C@H](Cc1c[nH]c2ccccc12)NC(=O)[C@H](CC(N)=O)NC(=O)[C@@H](N)Cc1ccc(O)cc1)C(=O)N[C@@H](CCCNC(=N)N)C(=O)N[C@@H](Cc1ccc(Cl)cc1)C(N)=O [Compound No. 130],10
11,CC(C)C[C@H](NC(=O)CNC(=O)[C@H](Cc1ccccc1)NC(=O)[C@H](CO)NC(=O)[C@H](CC(N)=O)NC(=O)[C@H](Cc1c[nH]c2ccccc12)NC(=O)[C@H](CC(N)=O)NC(=O)[C@@H](N)Cc1ccc(O)cc1)C(=O)N[C@@H](CCCNC(=N)N)C(=O)N[C@@H](Cc1ccc(N)cc1)C(N)=O [Compound No. 131],3
12,CC(C)C[C@H](NC(=O)CNC(=O)[C@H](Cc1ccccc1)NC(=O)[C@H](CO)NC(=O)[C@H](CC(N)=O)NC(=O)[C@H](Cc1c[nH]c2ccccc12)NC(=O)[C@H](CC(N)=O)NC(=O)[C@@H](N)Cc1ccc(O)cc1)C(=O)N[C@@H](CCCNC(=N)N)C(=O)N[C@@H](Cc1ccc([N+](=O)[O-])cc1)C(N)=O [Compound No. 132],10
13,CC(C)C[C@H](NC(=O)CNC(=O)[C@H](Cc1ccccc1)NC(=O)[C@H](CO)NC(=O)[C@H](CC(N)=O)NC(=O)[C@H](Cc1c[nH]c2ccccc12)NC(=O)[C@H](CC(N)=O)NC(=O)[C@@H](N)Cc1ccc(O)cc1)C(=O)N[C@@H](CCCNC(=N)N)C(=O)N[C@@H](Cc1cccc2ccccc12)C(N)=O [Compound No. 133] (H-YNWNSFGLR[1Nal]-NH2),3
14,"CNC(=N)NCCC[C@H](NC(=O)[C@H](CC(C)C)NC(=O)CNC(=O)[C@H](Cc1ccccc1)NC(=O)[C@H](CO)NC(=O)[C@H](CC(N)=O)NC(=O)[C@@H](Cc1c[nH]c2ccccc12)NC(=O)[C@H](CC(N)=O)NC(=O)[C@H](N)Cc1ccc(O)cc1)C(=O)N[C@@H](Cc1ccccc1)C(N)=O [Compound No. 142, D-Tyr-Asn-D-Trp-Asn-Ser-Phe-Gly-Leu-Arg(Me)-Phe-NH2]",2
15,"CNC(=N)NCCC[C@H](NC(=O)[C@H](CC(C)C)NC(=O)CNC(=O)[C@H](Cc1ccccc1)NC(=O)[C@H](CO)NC(=O)[C@H](CC(N)=O)NC(=O)[C@@H](Cc1c[nH]c2ccccc12)NC(=O)[C@H](CC(N)=O)NC(=O)[C@@H](N)Cc1ccc(O)cc1)C(=O)N[C@@H](Cc1ccccc1)C(N)=O [Compound No. 143, Tyr-Asn-D-Trp-Asn-Ser-Phe-Gly-Leu-Arg(Me)-Phe-NH2]",3
16,"CC(C)C[C@H](NC(=O)CNC(=O)[C@H](Cc1cccc2ccccc12)NC(=O)[C@H](CO)NC(=O)[C@H](CC(N)=O)NC(=O)[C@H](Cc1c[nH]c2ccccc12)NC(=O)[C@H](CC(N)=O)NC(=O)[C@@H](N)Cc1ccc(O)cc1)C(=O)N[C@@H](CCCNC(=N)N)C(=O)N[C@@H](Cc1ccccc1)C(N)=O [Compound No. 151, Tyr-Asn-Trp-Asn-Ser-Nal(1)-Gly-Leu-Arg-Phe-NH2] (H-YNWNS[1Nal]GLRF-NH2)",1
